The test system of test [1] is HuTu 80 cells (human duodenal adenocarcinoma). Nature of the test: MTT cytotoxicity test, HuTu 80. The test is classed as cell-based. The procedure, abridged: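 Cells seeded at 5 × 10^3 per well and grown at 37 °C to monolayer, then exposed to compounds for 48 h. Viability by MTT (0.5 mg/mL, serum-free medium, 4 h, 37 °C), formazan dissolved in DMSO, OD 540 nm. IC50 estimated from triplicate experiments.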
For orientation: Formazan colour is commonly taken as a measure of viable cells.

The nature of test [2]: DPPH antiradical assay. Conditions: DPPH 100 μM. Here is the method: Figure 4 Antioxidant potential of the tested compounds. (a) Inhibition of lipid peroxidation (LPO) in rat brain homogenates (2 mg/mL) initiated by Fe(II) ions (concentration of 500 µM) in the tested compounds at a concentration of 100 µM. (b) Concentration dependences of LPO inhibition for the studied compounds in the concentration range from 1 µM to 100 µM. (c) Oxygen Radical Absorbance Capacity (ORAC) of the studied compounds and ORAC values expressed as Trolox equivalent (TE). (d) DPPH antiradical activity of the compounds under study and DPPH values expressed as TE. The concentration of studied compounds and Trolox was 100 µM, the concentration of DPPH was 100 μM, and the concentration of AAPH was […]. Statistical significance was assessed using one-way ANOVA and Dunnett’s multiple comparison tests, where **** p < 0.0001, *** p < 0.001 and ** p < 0.01 vs. control. […]

For test [3], the system named is Chang liver cells (human liver cells, normal cell line). In words: MTT cytotoxicity test, Chang liver normal cells. The test is classed as cell-based. To be noted: 48 h incubation. An excerpt: For the experiments, we used tumor cell cultures M-HeLa clone 11 (epithelioid carcinoma of the cervix, subline HeLa., clone M-HeLa), HuTu 80 (human duodenal adenocarcinoma) and MCF7 (human breast adenocarcinoma (pleural fluid)) from the collection of the Institute of Cytology, Russian Academy of Sciences (St. Petersburg); human liver cells (Chang liver) from the collection of the Research Institute of Virology at the Russian Academy of Medical Sciences (Moscow); and SH-SY5Y (neuroblastoma)from the Laboratory of Tumor Cell Genetics at the Scientific Research Institute of Carcinogenesis N.N. Blokhin National Medical Research Center of Oncology.
The cytotoxic effect on cells was determined using the colorimetric method of cell proliferation—the MTT test. NADP-H-dependent cellular oxidoreductase enzymes can, under certain conditions, reflect the number of viable cells. These enzymes are able to reduce the tetrazolium dye (MTT)-3-(4,5-dimethylthiazol-2-yl)-2,5-diphenyl-tetrazolium bromide to insoluble blue-violet formazan, which crystallizes inside the cell. The amount of formazan formed is proportional to the number of cells with active metabolism.
Cells were seeded on a 96-well Nunc plate at a concentration of 5 × 10^3 cells per well in a volume of 100 μL of medium and cultured in a CO2 incubator at 37 °C until a monolayer was formed. […] After 48 h, the nutrient medium was removed from the plates and 100 µL of the nutrient medium without serum with MTT at a concentration of 0.5 mg/mL was added and incubated for 4 h at 37 °C. Formazan crystals were […] 100 µL of DMSO in each well. Optical density was recorded at 540 nm on an in vitro logic microplate reader (Russia). The experiments for all compounds were repeated in triplicate.
IC50 values were estimated using the Quest Graph IC50 Calculator (AAT Bioquest, Inc., Sunnyvale, CA, USA) (Version 2022) (accessed on 25 June 2022).

Here are results for one compound from publication PMC10454409, “Hybrids of Sterically Hindered Phenols and Diaryl Ureas: Synthesis, Switch from Antioxidant Activity to ROS Generation and Induction of Apoptosis” (International Journal of Molecular Sciences, 2023).

Each structure is given as a SMILES string. Like-named read-outs stand apart in the source and are kept apart here.

For the compound `CCOP(=O)(OCC)C(c1cc(C(C)(C)C)c(O)c(C(C)(C)C)c1)c1ccc(NC(=O)Nc2ccc([N+](=O)[O-])cc2)cc1NC(=O)Nc1ccc([N+](=O)[O-])cc1` (centres unmarked) [17b], the IC50 (usually the concentration that gives 50% inhibition) was below 15 µM in test [1] (Homo sapiens, HuTu80, read-out: IC50, HuTu 80); 13.2 µM in test [1] (read-out: IC50, HuTu 80); 74 ± 5.9 µM in test [3]. This compound yielded a DPPH antiradical activity in test [2] (compound 100 µM) of 64.8 ± 0.7%. Further, the “DPPH value (Trolox equivalent)” value in test [2] (compounds and Trolox 100 µM) was determined as 1.27 Trolox equivalent.
